Test results reported in patent US6841684B2, “Imidiazoles having reduced side effects” (Allergan, Inc., priority 1997, dated 2005).
Read-outs that look alike come from different tables or passages of the source.

Experiments:
[1] = system: cynomolgus monkeys with sustained elevated IOP; test: IOP lowering in conscious monkeys, eyes made hypertensive by argon laser photocoagulation; format: in vivo, cynomolgus monkey; conditions: Macaca fascicularis, topical, single 50 μl eye drop, up to 6 hours, read-out: Maximum % Decrease From Pretreatment Levels Hypertensive Eye (IOP); for inhibition in vivo at 1 %: ocular dose 1%; for inhibition in vivo at 3 %: ocular dose 3%; for inhibition in vivo at 0.3 %: ocular dose 0.3%
Source text: Measurements of IOP were made in fully conscious female cynomolgus monkeys weighing 3-4 kg with sustained elevated IOP that was produced in the right eye by argon laser photocoagulation of the trabecular meshwork. Animals were usable for experiments 2 months following surgery. During the experiments, monkeys sat in specially designed chairs (Primate Products, San Francisco), and were fed orange juice and fruit as needed. A 30R model Digilab pneumatonometer (Alcon, Tex.) was used to measure IOP.
Twenty five μl of an anesthetic (proparacaine) was topically applied to each monkey before IOP measurements to minimize ocular discomfort due to tonometry. Two baseline measurements were made prior to instillation of the drugs, followed by periodic measurements up to 6 hours post-instillation. The test compounds were administered unilaterally as a single 50 μl eye drop; the contralateral eyes received an equal volume of saline.

[2] = system: conscious cynomolgus monkeys; test: Cardiovascular side effects (blood pressure, heart rate) after i.v. administration; format: in vivo, cynomolgus monkey; conditions: up to 6 hours, + with * = increase from base levels
Source text: Cardiovascular measurements were made in a different group of monkeys using a BP 100S automated sphygmomanometer (Nippon Colin,. Japan).

[3] = system: conscious cynomolgus monkeys; test: Sedation score during the IOP experiments; format: in vivo, cynomolgus monkey; parameters: key to Sedation (0-4): 0=alert, typical vocalization, movement, etc.; 1=calm, less movement; 2=slightly sedated, some vocalization, responsive to stimulation; 3=sedated, no vocalization, some response to stimulation; 4=asleep
Experimental: At the same time, sedation was measured and assessed according to the following score: 0=alert, typical vocalization, movement, etc.; 1=calm, less movement; 2=slightly sedated, some vocalization, responsive to stimulation; 3=sedated, no vocalization, some response to stimulation; 4=asleep.

[4] = biological target: T1, rat α2B (RNG gene) receptor (Rattus norvegicus, UniProt P19328); test: RSAT (Receptor Selection and Amplification Technology) assay, alpha 2B; format: cell-based; conditions: ratio of maximal effect to that of standard full agonist oxymetazoline
T1 construct: expressed in transfected cells; host or cells: NIH-3T3 cells, calcium phosphate cotransfection
T1 sequence (P19328 1-453): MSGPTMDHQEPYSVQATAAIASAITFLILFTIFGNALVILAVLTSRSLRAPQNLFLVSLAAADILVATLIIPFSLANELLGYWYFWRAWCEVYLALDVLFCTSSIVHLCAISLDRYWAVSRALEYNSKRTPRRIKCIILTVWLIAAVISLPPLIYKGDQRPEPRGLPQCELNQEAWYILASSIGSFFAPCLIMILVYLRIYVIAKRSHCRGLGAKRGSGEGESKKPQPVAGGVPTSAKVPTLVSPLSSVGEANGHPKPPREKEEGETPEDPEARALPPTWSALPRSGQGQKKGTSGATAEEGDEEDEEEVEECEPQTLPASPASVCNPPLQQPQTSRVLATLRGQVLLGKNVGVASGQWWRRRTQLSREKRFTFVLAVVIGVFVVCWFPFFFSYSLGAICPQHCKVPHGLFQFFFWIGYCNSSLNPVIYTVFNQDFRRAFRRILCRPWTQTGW
Source text: This preferential activity can be determined in a variety of functional assays such as Cyclic AMP Production, Shimizu et al, J. Neurochem. […] In the study below, the RSAT assay on cells that have been transiently transfected with the human α2A (c10 gene), rat α2B (RNG gene) and human α2C (c4 gene) receptors was used.
The assay measures a receptor-mediated loss of contact inhibition that results in selective proliferation of receptor-containing cells in a mixed population of confluent cells. The increase in cell number is assessed with an appropriate transfected marker gene such as b-galactosidase, the activity of which can be easily measured in a 96-well format. Receptors that activate the G protein, Gq, elicit this response. Alpha2 receptors, which normally couple to Gi, activate the RSAT response when coexpressed with a hybrid Gq protein that has a Gi receptor recognition domain, called Gq/i5^2.
NIH-3T3 cells are plated at a density of 2×10^6 cells in 15 cm dishes and maintained in Dulbecco's modified Eagle's medium supplemented with 10% calf serum. One day later, cells are cotransfected by calcium phosphate precipitation with mammalian expression plasmids encoding p-SV-b-galactosidase (5-10 mg), receptor (1-2 mg) and G protein (1-2 mg). 40 mg salmon sperm DNA may also be included in the transfection mixture. Fresh media is added on the following day and 1-2 days later, cells are harvested and frozen in 50 assay aliquots. Cells are thawed and 100 ml added to […] aliquots of various concentrations of drugs in triplicate in 96-well dishes. Incubations continue 72-96 hr at 37°. After washing with phosphate-buffered saline, b-galactosidase enzyme activity is determined by adding 200 ml of the chromogenic substrate (consisting of 3.5 mM o-nitrophenyl-b-D-galactopyranoside and 0.5% nonidet P-40 in phosphate buffered saline), incubating overnight at 30° and measuring optical density at 420 nm. The absorbence is a measure of enzyme activity, which depends on cell number and reflects a receptor-mediated cell proliferation. The EC50 and maximal effect of each drug at each alpha2 receptor is determined. The efficacy or intrinsic activity is calculated as a ratio of the maximal effect of the drug to the maximal effect of a standard full agonist for each receptor subtype.

Row | SMILES | inhibition in vivo at 1 % ([1]; 6 h) [%] | Maximum % Decrease From Pretreatment Levels, Heart Rate ([2]; i.v. 500 μg/kg) | Maximum % Decrease From Pretreatment Levels, Mean Arterial Blood Pressure ([2]; i.v. 500 μg/kg) | Sedation (0-4) ([3]; ocular dose 1%) | Intrinsic Activity Relative to Oxymetazoline, Alpha 2B [4] | Sedation (0-4) ([3]; ocular dose 0.3%) | inhibition in vivo at 1 % [1] [%] | also measured
1 | c1nc(CC2CCCCC2)c[nH]1 [Example J-1, 4(5)-cyclohexylmethyl-1H-imidazole] | 26 ± 5 | 7 ± 4% | 13 ± 3% | 0 | 0.83 | – | – | inhibition in vivo at 3 % ([1]; 6 h): 33 ± 3%; Maximum % Decrease From Pretreatment Levels, Heart Rate ([2]; i.v. 17 μg/kg): 13 ± 4%; Maximum % Decrease From Pretreatment Levels, Mean Arterial Blood Pressure ([2]; i.v. 17 μg/kg): 7 ± 5.3%; Maximum % Decrease From Pretreatment Levels, Heart Rate ([2]; i.v. 50 μg/kg): 6 ± 2%; Maximum % Decrease From Pretreatment Levels, Mean Arterial Blood Pressure ([2]; i.v. 50 μg/kg): 4 ± 2%; Maximum % Decrease From Pretreatment Levels, Heart Rate ([2]; i.v. 167 μg/kg): 3 ± 3%; Maximum % Decrease From Pretreatment Levels, Mean Arterial Blood Pressure ([2]; i.v. 167 μg/kg): 7 ± 5%; Sedation (0-4) ([3]; ocular dose 3%): 0
2 | CN1CCOc2ccc(N=C3NCCN3)cc21 [Example E-1, imidazolidin-2-ylidene-(4-methyl-3,4-dihydro-2H-benzo[1,4]oxazin-6-yl) amine] | 27 ± 3 | – | – | 0 | 0.83 | 0 | – | inhibition in vivo at 0.3 % ([1]; 6 h): 25 ± 4%; Maximum % Decrease From Pretreatment Levels, Heart Rate ([2]; i.v. 17 μg/kg): 11 ± 4%; Maximum % Decrease From Pretreatment Levels, Mean Arterial Blood Pressure ([2]; i.v. 17 μg/kg): 7 ± 4%; Maximum % Decrease From Pretreatment Levels, Heart Rate ([2]; i.v. 50 μg/kg): 14 ± 5%; Maximum % Decrease From Pretreatment Levels, Mean Arterial Blood Pressure ([2]; i.v. 50 μg/kg): 7 ± 2%; Maximum % Decrease From Pretreatment Levels, Heart Rate ([2]; i.v. 167 μg/kg): 11 ± 5%; Maximum % Decrease From Pretreatment Levels, Mean Arterial Blood Pressure ([2]; i.v. 167 μg/kg): 9 ± 4%
3 | Cc1ccc(Cc2c[nH]cn2)s1 [Example C-3, 4(5)-(5-methylthiophen-2-ylmethyl)-1H-imidazole] | – | 10.6 ± 3.4% | 2.3 ± 2.7% | 0 | 0.88 | 0 | 25 ± 6.4 | inhibition in vivo at 0.3 % [1]: 20.6 ± 4.8%
4 | c1ccc2c(c1)CC[C@@H](Cc1c[nH]cn1)C2 [Example J-3, (R)-4(5)-(1,2,3,4-tetrahydronaphthalen-2-ylmethyl)-1H-imidazole] | – | +10.6 ± 6.0* % | +1.0 ± 2.1* % | – | 1 | 0 | – | Sedation (0-4) ([3]; ocular dose 0.03%): 0
5 | c1csc(Cc2c[nH]cn2)c1 [Example C-2, 4(5)-thiophen-2-ylmethyl-1H-imidazole] | – | 6.5 ± 2.9% | 6.6 ± 1.7% | 0 | 1.3 | – | 29.6 ± 5.5 | –
6 | c1ccc2c(c1)CC(Cc1c[nH]cn1)CO2 (stereo not drawn) [Example B-2d, 4(5)-chroman-3-ylmethyl-1H-imidazole] | 18.1 ± 5.2 | +15.5 ± 3.4* % | +8.9 ± 3.4* % | 0 | 0.6 | 0 | – | inhibition in vivo at 0.1 % ([1]; 6 h, ocular dose 0.1%): 22 ± 4.6%; inhibition in vivo at 0.3 % ([1]; 6 h): 17 ± 4.2%; Sedation (0-4) ([3]; ocular dose 0.1%): 0
7 | c1ccc(Cc2c[nH]cn2)cc1 [Example C-8, 4(5)-benzyl-1H-imidazole] | – | 16.6 ± 1.9% | 5.5 ± 2.7% | 0 | 0.9 | – | 31.2 ± 3.3 | –
8 | Cc1[nH]cnc1Cc1ccc2c(c1)OCCO2 [M, 4-(2,3-dihydrobenzo[1,4]dioxin-6-ylmethyl)-5-methyl-1H-imidazole] | 22.5 ± 5.4 | 5.5 ± 1.9% | 0.8 ± 2.3% | 0 | 0.97 | – | – | –
9 | Clc1ccc(Cc2c[nH]cn2)s1 [Example C-4, 4(5)-(5-chlorothiophen-2-ylmethyl)-1H-imidazole] | – | 10.9 ± 3.6% | 5.3 ± 2.9% | 0 | 0.82 | 0 | 29.3 ± 4.9 | inhibition in vivo at 0.3 % [1]: 17.7 ± 4%
10 | c1nc(Cc2ccsc2)c[nH]1 [Example C-1, 4(5)-thiophen-3-ylmethyl-1H-imidazole] | – | +11 ± 9* % | +5 ± 8* % | 0 | 0.83 | – | 25 ± 4 | inhibition in vivo at 3 % [1]: 29 ± 4%; Maximum % Decrease From Pretreatment Levels, Heart Rate ([2]; i.v. 50 μg/kg): 12 ± 4%; Maximum % Decrease From Pretreatment Levels, Mean Arterial Blood Pressure ([2]; i.v. 50 μg/kg): 12.8 ± 12%; Sedation (0-4) ([3]; ocular dose 3%): 0
11 | c1ccc(C2C3CCC(C3)C2/N=C2/NCCO2)cc1 [Example D-1, oxazolidin-2-ylidene-(3-phenylbicyclo[2.2.1]hept-2-yl) amine] | – | – | – | 0 | 0.47 | – | 25.6 ± 3.9 | –
12 | Cl.c1ccc2c(c1)CC(Cc1c[nH]cn1)CS2 (stereo not drawn) [Example B-6, 4(5)-thiochrom-3-ylmethyl-1H-imidazole, hydrogen chloride salt] | 22.1 ± 6.3 | – | – | 0 | 0.35 | 0 | – | inhibition in vivo at 0.3 % ([1]; 6 h): 13.8 ± 2.4%
